Source: the NIST ThermoML archive (doi:10.1016/j.tca.2013.11.010)
Numbers after ± are expanded uncertainties.

Legend:
[1] = for surface tension liquid-gas: Drop volume; for viscosity / speed of sound / mass density: 101.33 kPa; for viscosity / speed of sound / mass density / vapor or sublimation pressure: Liquid; for viscosity: Capillary tube (Ostwald / Ubbelohde) method; for speed of sound: Sing-around technique in a fixed-path interferometer; for mass density: Vibrating tube method; for vapor or sublimation pressure: Ebulliometric method (Recirculating still)
[2] = refractive index (Na D-line) (dimensionless); settings: 101.33 kPa, Liquid, Standard Abbe refractometry
[3] = relative permittivity at various frequencies (dimensionless); settings: 101.3 kPa, Liquid, Frequency=2 MHz, Parallel plate capacitor

COC(=O)C(C)O (stereo unspecified) [methyl 2-hydroxypropanoate]
Settings | mass density, [1] [kg/m3] | refractive index, [2] | relative permittivity, [3] | speed of sound, [1] [m/s] | surface tension liquid-gas, [1] [mN/m] | vapor or sublimation pressure, [1] [kPa] | viscosity, [1] [mPa·s]
278.15 K | 1109.61 ± 1.1 | – | 18.379 ± 0.18 | 1416.4 ± 2.3 | 35.05 ± 0.39 | – | 5.21 ± 0.12
280.65 K | 1106.86 ± 1.1 | – | 18.095 ± 0.18 | 1407.1 ± 2.3 | 34.8 ± 0.39 | – | 4.706 ± 0.11
283.15 K | 1104.11 ± 1.1 | 1.41831 ± 0.00054 | 17.817 ± 0.18 | 1397.6 ± 2.3 | 34.53 ± 0.39 | – | 4.281 ± 0.098
285.65 K | 1101.34 ± 1.1 | 1.41722 ± 0.00054 | 17.634 ± 0.18 | 1387.9 ± 2.3 | 34.25 ± 0.38 | – | 3.916 ± 0.09
288.15 K | 1098.57 ± 1 | 1.41613 ± 0.00054 | 17.353 ± 0.17 | 1378.2 ± 2.3 | 34.04 ± 0.38 | – | 3.588 ± 0.082
290.65 K | 1095.79 ± 1 | 1.41502 ± 0.00054 | 17.06 ± 0.17 | 1368.2 ± 2.3 | 33.73 ± 0.38 | – | 3.299 ± 0.076
293.15 K | 1093.01 ± 1 | 1.41392 ± 0.00054 | 16.779 ± 0.17 | 1358.4 ± 2.3 | 33.47 ± 0.37 | – | 3.043 ± 0.07
295.65 K | 1090.23 ± 1 | 1.41281 ± 0.00054 | 16.493 ± 0.17 | 1348.6 ± 2.3 | 33.14 ± 0.37 | – | 2.819 ± 0.065
298.15 K | 1087.43 ± 1 | 1.41171 ± 0.00054 | 16.21 ± 0.16 | 1338.8 ± 2.3 | 32.9 ± 0.37 | – | 2.618 ± 0.06
300.65 K | 1084.64 ± 1 | 1.41061 ± 0.00054 | 15.923 ± 0.16 | 1329.2 ± 2.3 | 32.6 ± 0.37 | – | 2.438 ± 0.056
303.15 K | 1081.83 ± 1 | 1.40949 ± 0.00054 | 15.647 ± 0.16 | 1319.5 ± 2.3 | 32.25 ± 0.36 | 0.692 ± 0.1 | 2.277 ± 0.052
305.65 K | 1079.02 ± 1 | 1.40837 ± 0.00054 | 15.412 ± 0.15 | 1309.9 ± 2.3 | 31.95 ± 0.36 | – | 2.132 ± 0.049
308.15 K | 1076.2 ± 1 | 1.40725 ± 0.00054 | 15.093 ± 0.15 | 1300.4 ± 2.3 | 31.58 ± 0.36 | 0.967 ± 0.1 | 2 ± 0.046
310.65 K | 1073.38 ± 0.99 | 1.40614 ± 0.00054 | 14.861 ± 0.15 | 1290.9 ± 2.3 | 31.23 ± 0.35 | – | 1.881 ± 0.043
313.15 K | 1070.55 ± 0.98 | 1.40502 ± 0.00054 | 14.598 ± 0.15 | 1281.4 ± 2.3 | 30.87 ± 0.35 | 1.333 ± 0.1 | 1.772 ± 0.041
315.65 K | 1067.71 ± 0.98 | 1.40386 ± 0.00054 | 14.355 ± 0.14 | 1271.9 ± 2.3 | 30.63 ± 0.35 | – | 1.672 ± 0.038
318.15 K | 1064.86 ± 0.97 | 1.40276 ± 0.00054 | 14.127 ± 0.14 | 1262.4 ± 2.3 | 30.34 ± 0.34 | 1.821 ± 0.1 | 1.58 ± 0.036
320.65 K | 1062.01 ± 0.97 | 1.40164 ± 0.00054 | 13.9 ± 0.14 | 1253 ± 2.3 | 30.08 ± 0.34 | – | 1.499 ± 0.034
323.15 K | 1059.15 ± 0.96 | 1.40051 ± 0.00054 | 13.666 ± 0.14 | 1243.5 ± 2.3 | 29.71 ± 0.34 | 2.399 ± 0.1 | 1.425 ± 0.033
325.65 K | 1056.28 ± 0.95 | 1.39937 ± 0.00054 | 13.359 ± 0.13 | 1234.1 ± 2.3 | 29.38 ± 0.33 | – | 1.345 ± 0.031
328.15 K | 1053.4 ± 0.95 | 1.39821 ± 0.00054 | 13.113 ± 0.13 | 1224.6 ± 2.3 | 29.03 ± 0.33 | 3.173 ± 0.1 | 1.29 ± 0.03
330.65 K | 1050.52 ± 0.94 | 1.3971 ± 0.00054 | 12.879 ± 0.13 | 1215.2 ± 2.3 | 28.83 ± 0.33 | – | 1.231 ± 0.028
333.15 K | 1047.63 ± 0.94 | 1.39596 ± 0.00054 | 12.631 ± 0.13 | 1205.7 ± 2.3 | 28.52 ± 0.32 | 4.139 ± 0.1 | 1.175 ± 0.027
335.65 K | 1044.73 ± 0.93 | 1.39479 ± 0.00054 | 12.319 ± 0.12 | 1196.3 ± 2.3 | 28.22 ± 0.32 | – | 1.136 ± 0.026
338.15 K | 1041.83 ± 0.92 | 1.39365 ± 0.00054 | 12.012 ± 0.12 | 1186.9 ± 2.3 | 27.92 ± 0.32 | 5.319 ± 0.1 | 1.075 ± 0.025
343.15 K | – | – | – | – | – | 6.889 ± 0.1 | –
348.15 K | – | – | – | – | – | 8.652 ± 0.1 | –
353.15 K | – | – | – | – | – | 10.81 ± 0.1 | –
358.15 K | – | – | – | – | – | 13.49 ± 0.1 | –
363.15 K | – | – | – | – | – | 16.6 ± 0.11 | –
368.15 K | – | – | – | – | – | 20.3 ± 0.11 | –
373.15 K | – | – | – | – | – | 24.7 ± 0.11 | –
378.15 K | – | – | – | – | – | 29.68 ± 0.12 | –
383.15 K | – | – | – | – | – | 35.5 ± 0.13 | –
388.15 K | – | – | – | – | – | 42.28 ± 0.14 | –
393.15 K | – | – | – | – | – | 50 ± 0.15 | –
398.15 K | – | – | – | – | – | 58.68 ± 0.16 | –
403.15 K | – | – | – | – | – | 68.64 ± 0.17 | –
408.15 K | – | – | – | – | – | 79.85 ± 0.2 | –
413.15 K | – | – | – | – | – | 92.5 ± 0.22 | –
